Experimental data: PubChem BioAssay AID2060499 (Molecular Pharmacology Branch, DTP, NCI, 2025)
pIC50: −log10 of the molar value.

Test system: 777334-354-R2-J4-PDC tumor spheroids with HUVEC/MSC, viability
Assay: Anticancer human tumor 777334-354-R2-J4-PDC patient-derived pancreatic adenocarcinoma cell line growth inhibition [GQUAD]
Conditions: for pIC50: curve of first compound; for viability, T/C: stronger effect = lower value
Method in brief: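 Tumor cells were grown as complex spheroids with HUVEC endothelial cells and mesenchymal stem cells as stroma. G-quadruplex stabilizers were combined with targeted agents over half-log dilutions from near the clinical Cmax, or from 10 microM.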

[1] = second compound 0.0316 µM, first compound 0.0316 µM
[2] = second compound 0.0316 µM, first compound 0.1 µM
[3] = second compound 0.0316 µM, first compound 0.316 µM
[4] = second compound 0.0316 µM, first compound 1 µM
[5] = second compound 0.0316 µM, first compound 3.16 µM
[6] = second compound 0.0316 µM, first compound 10 µM
[7] = second compound 0.1 µM, first compound 0.0316 µM
[8] = second compound 0.1 µM, first compound 0.1 µM
[9] = second compound 0.1 µM, first compound 0.316 µM
[10] = second compound 0.1 µM, first compound 1 µM
[11] = second compound 0.1 µM, first compound 3.16 µM
[12] = second compound 0.1 µM, first compound 10 µM
[13] = second compound 0.316 µM, first compound 0.0316 µM
[14] = second compound 0.316 µM, first compound 0.1 µM
[15] = second compound 0.316 µM, first compound 0.316 µM
[16] = second compound 0.316 µM, first compound 1 µM
[17] = second compound 0.316 µM, first compound 3.16 µM
[18] = second compound 0.316 µM, first compound 10 µM
[19] = second compound 1 µM, first compound 0.0316 µM
[20] = second compound 1 µM, first compound 0.1 µM
[21] = second compound 1 µM, first compound 0.316 µM
[22] = second compound 1 µM, first compound 1 µM
[23] = second compound 1 µM, first compound 3.16 µM
[24] = second compound 1 µM, first compound 10 µM
[25] = second compound 3.16 µM, first compound 0.0316 µM
[26] = second compound 3.16 µM, first compound 0.1 µM
[27] = second compound 3.16 µM, first compound 0.316 µM
[28] = second compound 3.16 µM, first compound 1 µM
[29] = second compound 3.16 µM, first compound 3.16 µM
[30] = second compound 3.16 µM, first compound 10 µM
[31] = second compound 10 µM, first compound 0.0316 µM
[32] = second compound 10 µM, first compound 0.1 µM
[33] = second compound 10 µM, first compound 0.316 µM
[34] = second compound 10 µM, first compound 1 µM
[35] = second compound 10 µM, first compound 3.16 µM
[36] = second compound 10 µM, first compound 10 µM
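Also: spheroids exposed to compounds for 7 days before readout.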

`CC(=O)O[C@H]1C(=O)[C@@]2(C)[C@H]([C@H](OC(=O)c3ccccc3)[C@]3(O)C[C@H](OC(=O)[C@H](O)[C@@H](NC(=O)c4ccccc4)c4ccccc4)C(C)=C1C3(C)C)[C@]1(OC(C)=O)CO[C@@H]1C[C@@H]2O` + Cc1cnc(CNC(=O)c2c(=O)c3ccc(N4CCCN(C)CC4)nc3n3c2sc2ccccc23)cn1 showed a pIC50 (second compound 0.0316 µM) of less than 5.00, a pIC50 (second compound 0.1 µM) of less than 5.00 and a pIC50 (second compound 0.316 µM) of less than 5.00. The pIC50 (second compound 1 µM) was less than 5.00, the pIC50 (second compound 3.16 µM) was less than 5.00 and the pIC50 (second compound 10 µM) was less than 5.00. For the same compound, the viability, T/C [1] was 70%, the viability, T/C [2] was 49.9% and the viability, T/C [3] was 53.5%. The viability, T/C [4] was 43%, the viability, T/C [5] was 52.1% and the viability, T/C [6] was 52.8%. The viability, T/C [7] was 78.2%, the viability, T/C [8] was 54.7% and the viability, T/C [9] was 61.6%. It also gave a viability, T/C [10] of 45.4%, a viability, T/C [11] of 60.9% and a viability, T/C [12] of 59.7%. It also gave a viability, T/C [13] of 74.3%, a viability, T/C [14] of 61.9% and a viability, T/C [15] of 61.5%. It also gave a viability, T/C [16] of 68.1%, a viability, T/C [17] of 64.2% and a viability, T/C [18] of 62.1%. The viability, T/C [19] was 65%, the viability, T/C [20] was 63.5% and the viability, T/C [21] was 61%. The viability, T/C [22] was 67.3%, the viability, T/C [23] was 80.5% and the viability, T/C [24] was 70.1%. The viability, T/C [25] was 57%, the viability, T/C [26] was 66.5% and the viability, T/C [27] was 63.6%. For the same compound, the viability, T/C [28] was 58.4%, the viability, T/C [29] was 71.6% and the viability, T/C [30] was 74.1%. For the same compound, the viability, T/C [31] was 61.2%, the viability, T/C [32] was 50.1% and the viability, T/C [33] was 55.8%. For the same compound, the viability, T/C [34] was 58.4%, the viability, T/C [35] was 60.6% and the viability, T/C [36] was 52.3%.

Compound `Cc1cccc(N(C)C(=O)C2C(O)CCN2c2nc(C)cc(C(F)(F)F)c2C#N)c1` (stereo not drawn) + Cc1cnc(CNC(=O)c2c(=O)c3ccc(N4CCCN(C)CC4)nc3n3c2sc2ccccc23)cn1 has a pIC50 (second compound 0.0316 µM) of less than 5.00, a pIC50 (second compound 0.1 µM) of less than 5.00 and a pIC50 (second compound 0.316 µM) of less than 5.00. For the same compound, the pIC50 (second compound 1 µM) was less than 5.00, the pIC50 (second compound 3.16 µM) was less than 5.00 and the pIC50 (second compound 10 µM) was less than 5.00. The viability, T/C [1] was 103%, the viability, T/C [2] was 91.3% and the viability, T/C [3] was 107%. It also gave a viability, T/C [4] of 94.5%, a viability, T/C [5] of 105% and a viability, T/C [6] of 100%. The viability, T/C [7] was 108%, the viability, T/C [8] was 92.2% and the viability, T/C [9] was 93.6%. The viability, T/C [10] was 83.5%, the viability, T/C [11] was 95% and the viability, T/C [12] was 85%. For the same compound, the viability, T/C [13] was 82.6%, the viability, T/C [14] was 84.9% and the viability, T/C [15] was 78.1%. The viability, T/C [16] was 84.8%, the viability, T/C [17] was 80.7% and the viability, T/C [18] was 91.7%. For the same compound, the viability, T/C [19] was 65.3%, the viability, T/C [20] was 73% and the viability, T/C [21] was 79.5%. For the same compound, the viability, T/C [22] was 75.8%, the viability, T/C [23] was 71.2% and the viability, T/C [24] was 65.5%. For the same compound, the viability, T/C [25] was 59.3%, the viability, T/C [26] was 67% and the viability, T/C [27] was 58.4%. It also gave a viability, T/C [28] of 62.3%, a viability, T/C [29] of 67.2% and a viability, T/C [30] of 60.6%. The viability, T/C [31] was 63%, the viability, T/C [32] was 63.2% and the viability, T/C [33] was 59.6%. It also gave a viability, T/C [34] of 64.5%, a viability, T/C [35] of 64.5% and a viability, T/C [36] of 62.7%.

Compound `C=CCn1c(=O)c2cnc(Nc3ccc(N4CCN(C)CC4)cc3)nc2n1-c1cccc(C(C)(C)O)n1` + Cc1cnc(CNC(=O)c2c(=O)c3ccc(N4CCCN(C)CC4)nc3n3c2sc2ccccc23)cn1 has a pIC50 (second compound 0.0316 µM) of 6.21, a pIC50 (second compound 0.1 µM) of 6.52 and a pIC50 (second compound 0.316 µM) of 6.40. The pIC50 (second compound 1 µM) was 6.44, the pIC50 (second compound 3.16 µM) was 6.79 and the pIC50 (second compound 10 µM) was 7.17. The viability, T/C [1] was 88.6%, the viability, T/C [2] was 75.3% and the viability, T/C [3] was 64.8%. For the same compound, the viability, T/C [4] was 37.5%, the viability, T/C [5] was 37.9% and the viability, T/C [6] was 38.4%. It also gave a viability, T/C [7] of 78.4%, a viability, T/C [8] of 67.8% and a viability, T/C [9] of 50.2%. The viability, T/C [10] was 37%, the viability, T/C [11] was 37% and the viability, T/C [12] was 38.5%. For the same compound, the viability, T/C [13] was 73%, the viability, T/C [14] was 72.1% and the viability, T/C [15] was 52.6%. For the same compound, the viability, T/C [16] was 39.8%, the viability, T/C [17] was 39.5% and the viability, T/C [18] was 40.5%. It also gave a viability, T/C [19] of 65.2%, a viability, T/C [20] of 64.4% and a viability, T/C [21] of 51.2%. It also gave a viability, T/C [22] of 40.6%, a viability, T/C [23] of 42.4% and a viability, T/C [24] of 38.2%. It also gave a viability, T/C [25] of 62.8%, a viability, T/C [26] of 56.3% and a viability, T/C [27] of 44.5%. For the same compound, the viability, T/C [28] was 37.3%, the viability, T/C [29] was 39.1% and the viability, T/C [30] was 35.1%. The viability, T/C [31] was 57.3%, the viability, T/C [32] was 46.8% and the viability, T/C [33] was 38.6%. It also gave a viability, T/C [34] of 32.6%, a viability, T/C [35] of 36.7% and a viability, T/C [36] of 27.8%.

With `COc1cccc2c1C(=O)c1c(O)c3c(c(O)c1C2=O)CC(O)(C(=O)CO)CC3OC1CC(N)C(O)C(C)O1` (stereo not drawn) + CN(C)c1ccc(Nc2c3ccc(NC(=O)CCN4CCCC4)cc3nc3cc(NC(=O)CCN4CCCC4)ccc23)cc1 the pIC50 (second compound 0.0316 µM) was 6.04, the pIC50 (second compound 0.1 µM) was 6.08 and the pIC50 (second compound 0.316 µM) was 6.11. The pIC50 (second compound 1 µM) was 6.17, the pIC50 (second compound 3.16 µM) was 6.20 and the pIC50 (second compound 10 µM) was 6.07. For the same compound, the viability, T/C [1] was 109%, the viability, T/C [2] was 84.4% and the viability, T/C [3] was 74.2%. The viability, T/C [4] was 49.3%, the viability, T/C [5] was 25.2% and the viability, T/C [6] was 9.52%. It also gave a viability, T/C [7] of 100%, a viability, T/C [8] of 85.3% and a viability, T/C [9] of 71.2%. The viability, T/C [10] was 47.1%, the viability, T/C [11] was 24.5% and the viability, T/C [12] was 13.8%. The viability, T/C [13] was 107%, the viability, T/C [14] was 78.9% and the viability, T/C [15] was 70.1%. It also gave a viability, T/C [16] of 47.9%, a viability, T/C [17] of 23.6% and a viability, T/C [18] of 14%. It also gave a viability, T/C [19] of 89.7%, a viability, T/C [20] of 74.7% and a viability, T/C [21] of 66.5%. For the same compound, the viability, T/C [22] was 42.9%, the viability, T/C [23] was 23.2% and the viability, T/C [24] was 12.2%. The viability, T/C [25] was 83.7%, the viability, T/C [26] was 76.5% and the viability, T/C [27] was 55%. For the same compound, the viability, T/C [28] was 48.4%, the viability, T/C [29] was 25% and the viability, T/C [30] was 15.2%. For the same compound, the viability, T/C [31] was 77%, the viability, T/C [32] was 78.2% and the viability, T/C [33] was 64%. For the same compound, the viability, T/C [34] was 50%, the viability, T/C [35] was 22.3% and the viability, T/C [36] was 14%.
